Source: ChEMBL document CHEMBL4507273 (2021)
pKi: −log10 of the molar value.

Assays:
[1] = molecular target: Serine/threonine-protein kinase PLK3 (Homo sapiens) (UniProt Q9H4B4); settings: Compound concentration 1000.0 nM
[2] = molecular target: Serine/threonine-protein kinase 33 (Homo sapiens) (UniProt Q9BYT3); settings: Compound concentration 1000.0 nM
[3] = test system: Phosphatidylinositol 4,5-bisphosphate 3-kinase catalytic subunit alpha isoform (Homo sapiens), P42336 [M1043I]; settings: Compound concentration 1000.0 nM
[4] = molecular target: Cyclin-dependent kinase 8 (Homo sapiens) (UniProt P49336); settings: Compound concentration 1000.0 nM
[5] = molecular target: Serine/threonine-protein kinase tousled-like 1 (Homo sapiens) (UniProt Q9UKI8); settings: Compound concentration 1000.0 nM
[6] = molecular target: D(1B) dopamine receptor (Homo sapiens) (UniProt P21918); settings: Compound concentration 10.0 uM
[7] = molecular target: Fibroblast growth factor receptor 3 (Homo sapiens) (UniProt P22607); settings: Compound concentration 1000.0 nM
[8] = molecular target: RAC-gamma serine/threonine-protein kinase (Homo sapiens) (UniProt Q9Y243); settings: Compound concentration 1000.0 nM
[9] = molecular target: Rho-associated protein kinase 1 (Homo sapiens) (UniProt Q13464); settings: Compound concentration 1000.0 nM
[10] = molecular target: Dual specificity mitogen-activated protein kinase kinase 6 (Homo sapiens) (UniProt P52564); settings: Compound concentration 1000.0 nM
[11] = molecular target: D(2) dopamine receptor (Homo sapiens, UniProt P14416); settings: Compound concentration 10.0 uM
[12] = molecular target: Calcium/calmodulin-dependent protein kinase type IV (Homo sapiens) (UniProt Q16566); settings: Compound concentration 1000.0 nM
[13] = molecular target: Calcium/calmodulin-dependent protein kinase type II subunit delta (Homo sapiens) (UniProt Q13557); settings: Compound concentration 1000.0 nM
[14] = molecular target: Serine/threonine-protein kinase VRK2 (Homo sapiens) (UniProt Q86Y07); settings: Compound concentration 1000.0 nM
[15] = molecular target: Serine/threonine-protein kinase Nek4 (Homo sapiens) (UniProt P51957); settings: Compound concentration 1000.0 nM
[16] = molecular target: Serine/threonine-protein kinase tousled-like 2 (Homo sapiens) (UniProt Q86UE8); settings: Compound concentration 1000.0 nM
[17] = molecular target: Serine/threonine-protein kinase Sgk1 (Homo sapiens) (UniProt O00141); settings: Compound concentration 1000.0 nM
[18] = molecular target: Serine/threonine-protein kinase 38-like (Homo sapiens) (UniProt Q9Y2H1); settings: Compound concentration 1000.0 nM
[19] = test system: Receptor-type tyrosine-protein kinase FLT3 (Homo sapiens), P36888 [UNDEFINED MUTATION]; settings: Compound concentration 1000.0 nM
[20] = molecular target: Tyrosine-protein kinase SYK (Homo sapiens) (UniProt P43405); settings: Compound concentration 1000.0 nM
[21] = molecular target: Leukocyte tyrosine kinase receptor (Homo sapiens) (UniProt P29376); settings: Compound concentration 1000.0 nM
[22] = molecular target: Son of sevenless homolog 2 (Homo sapiens, UniProt Q07890, G12C)
[23] = test system: Phosphatidylinositol 4,5-bisphosphate 3-kinase catalytic subunit alpha isoform (Homo sapiens), P42336 [Q546K]; settings: Compound concentration 1000.0 nM
[24] = test system: Receptor-type tyrosine-protein kinase FLT3 (Homo sapiens), P36888 [K663Q]; settings: Compound concentration 1000.0 nM
[25] = molecular target: Serine/threonine-protein kinase 32B (Homo sapiens) (UniProt Q9NY57); settings: Compound concentration 1000.0 nM
[26] = molecular target: Tyrosine-protein kinase JAK1 (Homo sapiens) (UniProt P23458); settings: Compound concentration 1000.0 nM
[27] = molecular target: Citron Rho-interacting kinase (Homo sapiens) (UniProt O14578); settings: Compound concentration 1000.0 nM
[28] = molecular target: T1, Alpha-1D adrenergic receptor (Homo sapiens, UniProt P25100); assay: GPCRScan assay: inhibition of Alpha1D; set-up: radioligand conc. used [nm] 0.3 – 1.0, parental cells stable; settings: for pKi: read-out: Ki
T1 sequence (P25100 whole entry): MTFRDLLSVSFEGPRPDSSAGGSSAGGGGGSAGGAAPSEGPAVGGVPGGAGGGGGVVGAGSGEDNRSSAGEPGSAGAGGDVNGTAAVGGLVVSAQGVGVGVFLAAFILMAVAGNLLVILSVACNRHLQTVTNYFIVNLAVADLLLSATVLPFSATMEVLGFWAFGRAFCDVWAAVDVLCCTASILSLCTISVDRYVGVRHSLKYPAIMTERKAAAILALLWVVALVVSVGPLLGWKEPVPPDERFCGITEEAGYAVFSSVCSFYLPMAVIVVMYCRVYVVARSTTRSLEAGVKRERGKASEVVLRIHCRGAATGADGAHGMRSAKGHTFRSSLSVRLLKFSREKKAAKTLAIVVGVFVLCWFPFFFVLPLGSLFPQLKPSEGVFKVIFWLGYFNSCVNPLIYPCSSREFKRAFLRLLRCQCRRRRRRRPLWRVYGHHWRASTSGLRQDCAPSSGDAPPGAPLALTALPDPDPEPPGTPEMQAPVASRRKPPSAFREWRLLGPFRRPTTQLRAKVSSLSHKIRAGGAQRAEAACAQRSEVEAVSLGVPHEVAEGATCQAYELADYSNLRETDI

[29] = molecular target: Maternal embryonic leucine zipper kinase (Homo sapiens) (UniProt Q14680); settings: Compound concentration 1000.0 nM
[30] = molecular target: 5'-AMP-activated protein kinase catalytic subunit alpha-1 (Homo sapiens) (UniProt Q13131); settings: Compound concentration 1000.0 nM
[31] = molecular target: Mitogen-activated protein kinase kinase kinase kinase 2 (Homo sapiens) (UniProt Q12851); settings: Compound concentration 1000.0 nM
[32] = molecular target: Mitogen-activated protein kinase kinase kinase 4 (Homo sapiens) (UniProt Q9Y6R4); settings: Compound concentration 1000.0 nM
[33] = molecular target: Cyclin-dependent kinase-like 5 (Homo sapiens) (UniProt O76039); settings: Compound concentration 1000.0 nM
[34] = molecular target: Mitogen-activated protein kinase 3 (Homo sapiens) (UniProt P27361); settings: Compound concentration 1000.0 nM
[35] = molecular target: Mitogen-activated protein kinase kinase kinase 13 (Homo sapiens) (UniProt O43283); settings: Compound concentration 1000.0 nM
[36] = molecular target: Cyclin-G-associated kinase (Homo sapiens) (UniProt O14976); settings: Compound concentration 1000.0 nM
[37] = molecular target: 1-phosphatidylinositol 3-phosphate 5-kinase (Homo sapiens) (UniProt Q9Y2I7); settings: Compound concentration 1000.0 nM

Chain of Mitogen-activated protein kinase kinase kinase 4 (Homo sapiens) (Q9Y6R4 whole entry): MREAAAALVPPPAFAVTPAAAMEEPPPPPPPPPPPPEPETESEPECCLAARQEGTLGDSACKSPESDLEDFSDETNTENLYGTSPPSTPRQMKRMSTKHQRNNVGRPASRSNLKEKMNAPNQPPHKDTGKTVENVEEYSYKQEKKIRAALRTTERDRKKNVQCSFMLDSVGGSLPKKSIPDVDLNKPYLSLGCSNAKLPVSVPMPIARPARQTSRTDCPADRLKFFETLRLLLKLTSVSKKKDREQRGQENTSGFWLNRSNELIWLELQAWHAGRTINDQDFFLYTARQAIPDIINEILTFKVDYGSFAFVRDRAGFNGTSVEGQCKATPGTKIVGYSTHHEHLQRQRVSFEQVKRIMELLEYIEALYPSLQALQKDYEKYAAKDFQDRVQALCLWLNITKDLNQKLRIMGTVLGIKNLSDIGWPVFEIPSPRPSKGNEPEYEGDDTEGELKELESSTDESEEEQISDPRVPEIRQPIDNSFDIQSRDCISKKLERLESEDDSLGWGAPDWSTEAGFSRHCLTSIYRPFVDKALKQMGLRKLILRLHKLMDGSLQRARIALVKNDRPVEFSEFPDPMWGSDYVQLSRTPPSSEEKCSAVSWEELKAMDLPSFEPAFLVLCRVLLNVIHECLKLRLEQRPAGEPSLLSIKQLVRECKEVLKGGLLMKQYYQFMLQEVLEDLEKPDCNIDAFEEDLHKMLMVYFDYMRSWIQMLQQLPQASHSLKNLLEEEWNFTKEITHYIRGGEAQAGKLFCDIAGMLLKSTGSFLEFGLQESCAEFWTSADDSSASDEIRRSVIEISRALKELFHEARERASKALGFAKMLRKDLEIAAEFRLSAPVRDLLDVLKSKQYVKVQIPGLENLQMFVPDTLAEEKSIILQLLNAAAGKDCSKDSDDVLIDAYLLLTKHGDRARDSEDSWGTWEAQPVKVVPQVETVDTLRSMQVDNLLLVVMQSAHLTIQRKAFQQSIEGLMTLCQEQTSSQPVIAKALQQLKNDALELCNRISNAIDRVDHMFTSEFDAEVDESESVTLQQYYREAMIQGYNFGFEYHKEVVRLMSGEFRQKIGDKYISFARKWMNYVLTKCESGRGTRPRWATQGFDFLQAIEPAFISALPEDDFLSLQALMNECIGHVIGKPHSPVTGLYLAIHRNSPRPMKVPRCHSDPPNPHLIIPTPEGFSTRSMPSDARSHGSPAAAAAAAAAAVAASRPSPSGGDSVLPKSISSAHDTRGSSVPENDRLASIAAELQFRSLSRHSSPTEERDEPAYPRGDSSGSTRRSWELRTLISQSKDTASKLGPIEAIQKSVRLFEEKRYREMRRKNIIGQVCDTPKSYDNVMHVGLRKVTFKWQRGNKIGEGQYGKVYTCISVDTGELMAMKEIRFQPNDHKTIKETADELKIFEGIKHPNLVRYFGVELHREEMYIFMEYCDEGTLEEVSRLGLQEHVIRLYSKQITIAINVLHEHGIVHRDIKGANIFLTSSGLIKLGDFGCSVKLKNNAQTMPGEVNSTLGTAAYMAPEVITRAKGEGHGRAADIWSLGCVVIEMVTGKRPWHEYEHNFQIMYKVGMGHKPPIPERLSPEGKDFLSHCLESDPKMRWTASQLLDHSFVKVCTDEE
Chain of Serine/threonine-protein kinase Nek4 (Homo sapiens) (P51957 whole entry, looked up): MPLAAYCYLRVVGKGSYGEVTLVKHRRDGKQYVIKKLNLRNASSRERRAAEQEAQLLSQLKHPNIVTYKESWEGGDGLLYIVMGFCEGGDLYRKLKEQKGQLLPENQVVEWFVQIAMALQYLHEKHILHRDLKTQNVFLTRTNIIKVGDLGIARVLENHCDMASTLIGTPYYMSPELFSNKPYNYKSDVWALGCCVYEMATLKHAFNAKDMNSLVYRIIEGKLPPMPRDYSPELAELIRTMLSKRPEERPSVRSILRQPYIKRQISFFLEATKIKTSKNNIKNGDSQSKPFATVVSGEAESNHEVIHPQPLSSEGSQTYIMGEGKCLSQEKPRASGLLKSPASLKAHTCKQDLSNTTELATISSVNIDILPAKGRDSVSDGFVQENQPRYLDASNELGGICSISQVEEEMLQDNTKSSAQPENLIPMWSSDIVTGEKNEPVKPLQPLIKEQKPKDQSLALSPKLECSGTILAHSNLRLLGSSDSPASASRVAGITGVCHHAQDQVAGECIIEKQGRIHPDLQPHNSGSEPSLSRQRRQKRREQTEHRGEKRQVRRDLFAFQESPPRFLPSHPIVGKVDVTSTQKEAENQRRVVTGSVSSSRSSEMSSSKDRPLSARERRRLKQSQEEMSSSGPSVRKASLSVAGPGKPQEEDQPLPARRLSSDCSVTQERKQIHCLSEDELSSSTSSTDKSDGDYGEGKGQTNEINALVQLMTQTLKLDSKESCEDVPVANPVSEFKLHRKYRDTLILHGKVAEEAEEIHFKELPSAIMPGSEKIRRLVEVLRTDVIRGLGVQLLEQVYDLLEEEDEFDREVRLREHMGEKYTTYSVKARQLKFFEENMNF
Chain of Cyclin-G-associated kinase (Homo sapiens) (O14976 whole entry): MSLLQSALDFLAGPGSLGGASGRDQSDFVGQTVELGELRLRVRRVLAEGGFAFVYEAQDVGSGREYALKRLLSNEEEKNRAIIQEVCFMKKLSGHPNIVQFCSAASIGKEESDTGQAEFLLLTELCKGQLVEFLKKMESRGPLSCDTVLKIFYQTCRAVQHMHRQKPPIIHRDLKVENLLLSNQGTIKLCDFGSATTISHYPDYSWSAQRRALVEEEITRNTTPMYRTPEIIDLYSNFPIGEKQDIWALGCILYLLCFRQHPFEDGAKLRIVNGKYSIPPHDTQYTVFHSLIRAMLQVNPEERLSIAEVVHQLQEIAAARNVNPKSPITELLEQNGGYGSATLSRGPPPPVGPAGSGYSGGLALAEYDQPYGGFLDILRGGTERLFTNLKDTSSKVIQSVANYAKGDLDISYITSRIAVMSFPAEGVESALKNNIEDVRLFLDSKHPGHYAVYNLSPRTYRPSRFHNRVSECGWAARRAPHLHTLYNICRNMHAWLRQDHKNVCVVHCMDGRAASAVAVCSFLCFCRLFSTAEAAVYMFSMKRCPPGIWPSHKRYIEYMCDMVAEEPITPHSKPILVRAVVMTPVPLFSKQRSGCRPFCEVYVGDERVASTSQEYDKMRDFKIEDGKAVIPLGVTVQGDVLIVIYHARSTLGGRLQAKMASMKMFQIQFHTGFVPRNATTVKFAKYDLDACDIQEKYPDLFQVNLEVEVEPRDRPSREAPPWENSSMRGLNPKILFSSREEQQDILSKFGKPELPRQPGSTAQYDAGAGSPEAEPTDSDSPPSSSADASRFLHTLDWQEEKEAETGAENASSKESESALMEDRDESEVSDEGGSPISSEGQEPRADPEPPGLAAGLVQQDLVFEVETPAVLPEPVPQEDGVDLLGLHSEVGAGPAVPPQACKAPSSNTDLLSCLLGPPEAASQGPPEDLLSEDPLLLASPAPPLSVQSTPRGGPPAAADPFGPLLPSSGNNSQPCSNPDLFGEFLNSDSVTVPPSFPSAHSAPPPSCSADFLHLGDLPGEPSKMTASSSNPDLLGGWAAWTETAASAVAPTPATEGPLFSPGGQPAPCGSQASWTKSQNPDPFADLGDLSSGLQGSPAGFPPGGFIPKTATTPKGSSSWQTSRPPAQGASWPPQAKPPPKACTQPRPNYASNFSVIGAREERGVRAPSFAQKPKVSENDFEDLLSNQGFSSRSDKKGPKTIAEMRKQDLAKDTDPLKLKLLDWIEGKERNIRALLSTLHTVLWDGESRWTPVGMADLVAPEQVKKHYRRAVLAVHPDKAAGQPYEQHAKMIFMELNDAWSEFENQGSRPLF
Chain of Tyrosine-protein kinase JAK1 (Homo sapiens) (P23458 whole entry): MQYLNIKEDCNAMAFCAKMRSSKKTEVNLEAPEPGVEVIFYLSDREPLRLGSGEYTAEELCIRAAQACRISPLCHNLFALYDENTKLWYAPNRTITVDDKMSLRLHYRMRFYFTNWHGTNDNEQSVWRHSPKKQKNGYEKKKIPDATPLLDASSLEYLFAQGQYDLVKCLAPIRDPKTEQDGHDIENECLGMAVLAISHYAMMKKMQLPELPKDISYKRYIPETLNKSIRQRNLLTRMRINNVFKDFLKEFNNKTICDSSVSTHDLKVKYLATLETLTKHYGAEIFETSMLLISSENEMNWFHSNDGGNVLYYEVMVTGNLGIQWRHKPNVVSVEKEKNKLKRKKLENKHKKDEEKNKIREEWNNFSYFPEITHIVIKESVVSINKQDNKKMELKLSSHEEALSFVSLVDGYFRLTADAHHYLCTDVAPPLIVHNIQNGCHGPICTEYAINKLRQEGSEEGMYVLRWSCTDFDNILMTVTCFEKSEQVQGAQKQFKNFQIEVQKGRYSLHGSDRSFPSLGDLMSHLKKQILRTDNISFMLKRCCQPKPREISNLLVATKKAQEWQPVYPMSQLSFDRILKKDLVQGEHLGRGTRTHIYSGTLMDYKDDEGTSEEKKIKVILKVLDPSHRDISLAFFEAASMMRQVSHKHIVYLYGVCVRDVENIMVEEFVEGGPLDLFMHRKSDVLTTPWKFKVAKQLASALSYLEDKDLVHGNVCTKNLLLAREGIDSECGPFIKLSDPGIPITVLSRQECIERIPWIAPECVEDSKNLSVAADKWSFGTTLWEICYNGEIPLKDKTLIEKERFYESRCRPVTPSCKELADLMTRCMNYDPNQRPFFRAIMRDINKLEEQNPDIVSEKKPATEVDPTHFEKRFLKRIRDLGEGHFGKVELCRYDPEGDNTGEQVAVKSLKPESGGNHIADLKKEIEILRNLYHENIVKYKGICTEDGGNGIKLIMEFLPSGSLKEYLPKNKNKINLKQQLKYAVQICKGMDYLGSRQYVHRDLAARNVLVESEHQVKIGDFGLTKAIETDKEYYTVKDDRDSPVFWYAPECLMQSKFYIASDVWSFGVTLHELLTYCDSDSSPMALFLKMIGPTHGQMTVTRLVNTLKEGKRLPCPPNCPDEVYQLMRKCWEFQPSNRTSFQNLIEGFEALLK

Structure (SMILES) | residual activity [1] | residual activity [2] | residual activity [3] | residual activity [4] | residual activity [5] | inhibition [6] | residual activity [7] | residual activity [8] | residual activity [9] | residual activity [10] | inhibition [11] | residual activity [12] | residual activity [13] | residual activity [14] | residual activity [15] | residual activity [16] | residual activity [17] | residual activity [18] | residual activity [19] | residual activity [20] | other results
CNCc1ccccc1-c1csc([C@@H](C)Nc2nc(C)nc3cc(OC)c(OC)cc23)c1 [BAY-293] | 91% | 45% | 56% | 68% | 100% | 32.5% | 90% | 92% | 91% | 86% | 32.3% | 88% | 99% | 89% | 83% | 90% | 81% | 86% | 89% | 100% | residual activity [21]: 97%; IC50 [22]: > 20000 nM (not active); residual activity [23]: 89%; residual activity [24]: 77%; residual activity [25]: 100%; residual activity [26]: 73%; residual activity [27]: 92%; pKi [28]: 6.47; residual activity [29]: 53%; residual activity [30]: 100%; residual activity [31]: 91%; residual activity [32]: 73%; residual activity [33]: 94%; residual activity [34]: 94%; residual activity [35]: 80%; residual activity [36]: 88%; residual activity [37]: 100%
CNCc1ccccc1-c1csc([C@H](C)Nc2nc(C)nc3cc(OC)c(OC)cc23)c1 [BAY-294] | 87% | 73% | 100% | 84% | 100% | 36.6% | 98% | 95% | 93% | 100% | 50.6% | 99% | 97% | 73% | 83% | 100% | 91% | 94% | 99% | 100% | residual activity [21]: 98%; IC50 [22]: > 20000 nM (not active); residual activity [23]: 84%; residual activity [24]: 93%; residual activity [25]: 100%; residual activity [26]: 68%; residual activity [27]: 100%; pKi [28]: 6.40; Ki ([28]; read-out: pKi (converted)): 389 nM; residual activity [29]: 74%; residual activity [30]: 93%; residual activity [31]: 97%; residual activity [32]: 100%; residual activity [33]: 87%; residual activity [34]: 100%; residual activity [35]: 91%; residual activity [36]: 90%; residual activity [37]: 100%
